# Active and inactive are the calls of the source. The calls are words filed in the database; no cut-off is given here.
# Legend:
# [1] = test system: Mycobacterium tuberculosis; assay: Antitubercular activity against Mycobacterium bovis BCG under hypoxic condition after 14 days by MTT method; assay type: functional; details: variant bovis BCG, 336 h
# [2] = test system: Mycobacterium tuberculosis; assay: Antitubercular activity against Mycobacterium bovis BCG under aerobic condition after 7 days by MTT method; assay type: functional; details: variant bovis BCG, 168 h
# [3] = test system: Mycobacterium tuberculosis; assay: Bactericidal activity against Mycobacterium bovis BCG assessed as decrease in CFU at 10 ug/ml after 4 weeks; assay type: functional, organism-based; details: variant bovis BCG
Structure (SMILES),MIC [1] [µg/mL],MIC [2] [µg/mL],Activity [3]
C1=C2CCCC/C=C\C=C\CCN3CC[C@@H]4[C@H](CCCCCC/C=C\C=C/CCN(C2)C[C@H]14)C3 [HALICYCLAMINE A],1,1,Active
NNC(=O)c1ccncc1 [ISONIAZID],> 100,0.03,–

# — ChEMBL document CHEMBL1155003, “Halicyclamine A, a marine spongean alkaloid as a lead for anti-tuberculosis agent” (2008)
